# What was measured:
# Test in all cases: Greenhouse postemergence herbicidal effect, visual injury after 20-22 d
# Assay type in all cases: in vivo
# [1] = system: giant foxtail (SETFA, Setaria faberi); details: Table 4
# From the text: (§1) Seeds of the desired test plant species were planted in a 90:10% v/v (volume/volume) mixture of PRO-MIX® BX (Premier Tech Horticulture, Quakertown, Pa., USA) and PROFILE® GREENS GRADE™ (Profile Products LLC, Buffalo Grove, Ill., USA) planting mixture, which typically has a pH of 5.2 to 6.2 and an organic matter content of at least 50 percent, in plastic pots with a surface area of 103.2 square centimeters (cm^2). In some aspects, to ensure good germination and healthy plants, a fungicide treatment and/or other chemical or physical treatment was applied. The plants were grown for 7-36 days (d) in a greenhouse with an approximate 14-hour (h) photoperiod which was maintained at about 23° C. during the day and 22° C. during the night. Nutrients and water were added on a regular basis and supplemental lighting was provided with overhead metal halide 1000-Watt lamps as necessary. The plants were employed for testing when they reached the second or third true leaf stage.
# (§2) Emulsifiable concentrates of each of each pyridine carboxylate herbicide (Compound A or Compound B) were prepared at 100 grams acid equivalent per liter (g ae/L). The emulsifiable concentrates also included a safener, cloquintocet-mexyl, at 120 grams active ingredient per liter (g ai/L). An aliquot of each emulsifiable concentrate was placed in a 25 mL glass vial and diluted with an aqueous mixture of 1.25% (v/v) ACTIROB® B esterified rapeseed oil (Bayer Crop Science, Research Triangle Park, N.C., USA) or MSO® Concentrate with LECI-TECH® methylated soybean oil (Loveland Products, Loveland, Colo., USA) to obtain concentrated stock solutions at the highest application rate for each herbicide, based upon a 12 milliliter (mL) application volume at a rate of 187 liters per hectare (L/ha). The concentrated stock solutions were further diluted with an aqueous mixture of 1.25% v/v ACTIROB® B or MSO® Concentrate with LECI-TECH® to obtain stock solutions at reduced application rates for each herbicide. Spray solutions of the herbicide combinations (Compound A or Compound B plus PDS inhibitor herbicide) were prepared by adding weighed amounts or aliquots of the PDS inhibitor herbicide to the stock solutions of Compound A or Compound B to form 12-mL spray solutions in two- or three-way combinations.
# (§3) The spray solutions were applied to the plant material with an overhead Mandel track sprayer equipped with 8002E nozzles calibrated to deliver 187 L/ha over an application area of 0.503 square meters (m^2) at a spray height of 18 inches ([…] centimeters (cm)) above the average plant canopy. Control plants were sprayed in the same manner with the solvent blank. All pyridine carboxylate herbicide (component a) application rates are given as “g ae/ha” and all PDS inhibitor herbicide (component b) application rates are given as “g ai/ha.”
# (§4) The treated plants and control plants were placed in a greenhouse as described above and watered by sub-irrigation to prevent wash-off of the test compounds. After 20-22 d, the condition of the test plants as compared with that of the control plants was determined visually and scored on a scale of 0 to 100 percent where 0 corresponds to no injury and 100 corresponds to complete kill.
# [2] = system: wild mustard (SINAR, Sinapis arvensis); details: for visual injury: Table 1
# From the text: as §1, §2, §3, §4
# [3] = system: common sunflower (HELAN, Helianthus annuus)
# From the text: as §1, §2, §3, §4
# [4] = system: wild buckwheat (POLCO, Polygonum convolvulus); details: for visual injury: Table 1
# From the text: as §1, §2, §3, §4
# [5] = system: ivyleaf morningglory (IPOHE, Ipomoea hederacea)
# From the text: as §1, §2, §3, §4
# [6] = system: wild pansy (VIOTR, Viola tricolor)
# From the text: as §1, §2, §3, §4
# [7] = system: barnyardgrass (ECHCG, Echinochloa crus-galli); details: Table 4
# From the text: as §1, §2, §3, §4
# [8] = system: wild chamomile (MATCH, Matricaria chamomilla); details: for visual injury: Table 1
# From the text: as §1, §2, §3, §4
# [9] = system: broad-leaf dock (RUMOB, Rumex obtusifolius); details: Table 4
# From the text: as §1, §2, §3, §4
# [10] = system: Italian ryegrass (LOLMU, Lolium multiflorum.); details: Table 4
# From the text: as §1, §2, §3, §4
# [11] = system: spring rape (BRSNN, Brassica napus)
# From the text: as §1, §2, §3, §4
smiles,measurement,setting,value
"N#CCOC(=O)c1nc(-c2ccc3cc[nH]c3c2F)c(F)c(N)c1Cl [Compound A, cyanomethyl 4-amino-3-chloro-5-fluoro-6-(7-fluoro-1H-indol-6-yl)pyridine-2-carboxylate]",visual injury Obs,[1]; 7.5 g/ha,70%
same,visual injury Obs,[1]; 10 g/ha,70%
same,visual injury,[2]; 7.5 g/ha,88%
same,visual injury Obs,"[2]; 7.5 g/ha, Table 2",88%
same,visual injury Obs,"[2]; 7.5 g/ha, Table 3",85%
same,visual injury Obs,"[2]; 7.5 g/ha, Table 7",85%
same,visual injury,[2]; 10 g/ha,90%
same,visual injury Obs,"[2]; 10 g/ha, Table 2",92%
same,visual injury Obs,"[2]; 10 g/ha, Table 3",90%
same,visual injury Obs,"[2]; 10 g/ha, Table 7",88%
same,visual injury Obs,"[3]; 7.5 g/ha, Table 5",83%
same,visual injury Obs,"[3]; 7.5 g/ha, Table 6",83%
same,visual injury Obs,"[3]; 10 g/ha, Table 5",88%
same,visual injury Obs,"[3]; 10 g/ha, Table 6",88%
same,visual injury,[4]; 7.5 g/ha,78%
same,visual injury Obs,"[4]; 7.5 g/ha, Table 2",70%
same,visual injury Obs,"[4]; 7.5 g/ha, Table 3",88%
same,visual injury Obs,"[4]; 7.5 g/ha, Table 5",68%
same,visual injury Obs,"[4]; 7.5 g/ha, Table 6",68%
same,visual injury Obs,"[4]; 7.5 g/ha, Table 7",60%
same,visual injury Obs,"[4]; 7.5 g/ha, Table 8",63%
same,visual injury,[4]; 10 g/ha,93%
same,visual injury Obs,"[4]; 10 g/ha, Table 2",78%
same,visual injury Obs,"[4]; 10 g/ha, Table 3",96%
same,visual injury Obs,"[4]; 10 g/ha, Table 5",70%
same,visual injury Obs,"[4]; 10 g/ha, Table 6",70%
same,visual injury Obs,"[4]; 10 g/ha, Table 7",70%
same,visual injury Obs,"[4]; 10 g/ha, Table 8",60%
same,visual injury Obs,"[4]; 15 g/ha, Table 8",63%
same,visual injury Obs,"[5]; 7.5 g/ha, Table 4",3%
same,visual injury Obs,"[5]; 7.5 g/ha, Table 5",5%
same,visual injury Obs,"[5]; 7.5 g/ha, Table 6",5%
same,visual injury Obs,"[5]; 10 g/ha, Table 4",8%
same,visual injury Obs,"[5]; 10 g/ha, Table 5",0%
same,visual injury Obs,"[5]; 10 g/ha, Table 6",0%
same,visual injury Obs,"[6]; 7.5 g/ha, Table 4",10%
same,visual injury Obs,"[6]; 7.5 g/ha, Table 5",3%
same,visual injury Obs,"[6]; 7.5 g/ha, Table 6",3%
same,visual injury Obs,"[6]; 10 g/ha, Table 4",18%
same,visual injury Obs,"[6]; 10 g/ha, Table 5",3%
same,visual injury Obs,"[6]; 10 g/ha, Table 6",3%
same,visual injury Obs,[7]; 7.5 g/ha,73%
same,visual injury Obs,[7]; 10 g/ha,78%
same,visual injury,[8]; 7.5 g/ha,20%
same,visual injury Obs,"[8]; 7.5 g/ha, Table 2",13%
same,visual injury Obs,"[8]; 7.5 g/ha, Table 3",0%
same,visual injury Obs,"[8]; 7.5 g/ha, Table 7",18%
same,visual injury Obs,"[8]; 7.5 g/ha, Table 8",8%
same,visual injury,[8]; 10 g/ha,30%
same,visual injury Obs,"[8]; 10 g/ha, Table 2",15%
same,visual injury Obs,"[8]; 10 g/ha, Table 3",33%
same,visual injury Obs,"[8]; 10 g/ha, Table 7",30%
same,visual injury Obs,"[8]; 10 g/ha, Table 8",15%
same,visual injury Obs,"[8]; 15 g/ha, Table 8",10%
same,visual injury Obs,[9]; 7.5 g/ha,8%
same,visual injury Obs,[9]; 10 g/ha,10%
same,visual injury Obs,[10]; 7.5 g/ha,0%
same,visual injury Obs,[10]; 10 g/ha,0%
same,visual injury Obs,"[11]; 7.5 g/ha, Table 2",55%
same,visual injury Obs,"[11]; 7.5 g/ha, Table 3",55%
same,visual injury Obs,"[11]; 7.5 g/ha, Table 4",73%
same,visual injury Obs,"[11]; 10 g/ha, Table 2",60%
same,visual injury Obs,"[11]; 10 g/ha, Table 3",70%
same,visual injury Obs,"[11]; 10 g/ha, Table 4",83%
